Experimental data published in ChEMBL document CHEMBL3044877, “Synthesis and crystal structure of chalcones as well as on cytotoxicity and antibacterial properties” (Med Chem Res, 2012).
Values after ≈ are worked out from the molar mass of the structure shown.

Experiments:
HT-29 = assay: Cytotoxicity against Homo sapiens (human) HT-29 cells after 72 hr by MTT assay; assay type: functional, cell-based
SGC-7901 = assay: Cytotoxicity against Homo sapiens (human) SGC7901 cells after 72 hr by MTT assay; assay type: functional, cell-based
[1] = system: Staphylococcus epidermidis; assay: Antibacterial activity against multidrug-resistant Staphylococcus epidermidis 620206; assay type: functional
Staphylococcus aureus [2] = assay: Antibacterial activity against multidrug-resistant Staphylococcus aureus 701230; assay type: functional
Staphylococcus aureus [3] = assay: Antibacterial activity against multidrug-resistant Staphylococcus aureus 701219; assay type: functional
Staphylococcus aureus [4] = assay: Antibacterial activity against multidrug-resistant Staphylococcus aureus ATCC 25923; assay type: functional
[5] = system: Staphylococcus epidermidis; assay: Antibacterial activity against multidrug-resistant Staphylococcus epidermidis 619083; assay type: functional
Enterococcus faecium = assay: Antibacterial activity against multidrug-resistant Enterococcus faecium 609205; assay type: functional
Enterococcus faecalis = assay: Antibacterial activity against multidrug-resistant Enterococcus faecalis 609230; assay type: functional
Escherichia coli [6] = assay: Antibacterial activity against multidrug-resistant Escherichia coli 629247; assay type: functional
Pseudomonas aeruginosa [7] = assay: Antibacterial activity against multidrug-resistant Pseudomonas aeruginosa 710218; assay type: functional
Escherichia coli [8] = assay: Antibacterial activity against multidrug-resistant Escherichia coli 629119; assay type: functional
Klebsiella pneumoniae [9] = assay: Antibacterial activity against multidrug-resistant Klebsiella pneumoniae 626238; assay type: functional
Klebsiella pneumoniae [10] = assay: Antibacterial activity against multidrug-resistant Klebsiella pneumoniae 626511; assay type: functional
Acinetobacter baumannii [11] = assay: Antibacterial activity against multidrug-resistant Acinetobacter baumannii B-8 303211; assay type: functional
Acinetobacter baumannii [12] = assay: Antibacterial activity against multidrug-resistant Acinetobacter baumannii B-5 302234; assay type: functional
Pseudomonas aeruginosa [13] = assay: Antibacterial activity against multidrug-resistant Pseudomonas aeruginosa 630266; assay type: functional
Staphylococcus aureus [14] = assay: Antibacterial activity against Staphylococcus aureus after 24 hr; assay type: functional
[15] = Homo sapiens, HT-29, 72 h, read-out: IC50
[16] = Homo sapiens, SGC-7901, 72 h, read-out: IC50

In the case of `COc1ccc(C(=O)/C=C/c2ccccc2C(F)(F)F)cc1`, the IC50 (HT-29; [15]) is reported as 36.4 µM.
`COc1ccc(C(=O)/C=C/c2ccc(Cl)cc2Cl)cc1` gave an IC50 (SGC-7901; [16]) of 12.6 µM and an IC50 (HT-29; [15]) of 18.9 µM.
Work on `COc1ccc(C(=O)/C=C/c2ccc(F)cc2F)cc1` yielded an IC50 (SGC-7901; [16]) of 48.4 µM and an IC50 (HT-29; [15]) of 11.1 µM.
In the case of `COc1ccc(/C=C/C(=O)c2ccccc2O)c(OC)c1`, the IC50 (SGC-7901; sgc-7901) is reported as “Not Active” and the IC50 (HT-29; ht-29) is reported as “Not Active”.
`COc1ccc(/C=C/C(=O)c2ccccc2)c(OC)c1` gave an IC50 (HT-29; [15]) of 131 µM.
With `O=C(/C=C/c1ccccc1C(F)(F)F)c1ccccc1` the IC50 (SGC-7901; [16]) was 40.3 µM and the IC50 (HT-29; [15]) was 42.9 µM.
`COc1ccc(C(=O)/C=C/c2ccccc2Cl)cc1OC` was tested, and the IC50 (SGC-7901; [16]) was 24.7 µM and the IC50 (HT-29; [15]) was 15.5 µM.
For `COc1ccc(C(=O)/C=C/c2cccc(OC)c2OC)cc1`, the IC50 (SGC-7901; [16]) was 13.1 µM and the IC50 (HT-29; [15]) was 41.7 µM.
With `COc1ccc(C(=O)/C=C/c2ccccc2Br)cc1OC` the IC50 (SGC-7901; [16]) was 21.4 µM and the IC50 (HT-29; [15]) was 14 µM.
With `COc1ccc(/C=C/C(=O)c2cc(F)cc(F)c2)c(OC)c1` the IC50 (SGC-7901; [16]) was 55.5 µM and the IC50 (HT-29; ht-29) was “Not Active”.
`COc1ccc(C(=O)/C=C/c2ccccc2OC)cc1` was tested, and the IC50 (SGC-7901; sgc-7901) was “Not Active”.
Work on `COc1ccccc1/C=C/C(=O)c1cc(F)cc(F)c1` yielded an IC50 (SGC-7901; [16]) of 75.4 µM and an IC50 (HT-29; [15]) of 53.2 µM.
In the case of `Nc1ccc(C(=O)/C=C/c2ccccc2C(F)(F)F)cc1`, the IC50 (SGC-7901; [16]) is reported as 15.7 µM.
`COc1ccc(C(=O)/C=C/c2ccccc2Br)cc1` showed an IC50 (SGC-7901; [16]) of 20 µM and an IC50 (HT-29; [15]) of 25.7 µM.
`COc1ccc(C(=O)/C=C/c2ccc(Cl)cc2Cl)cc1OC` was tested, and the IC50 (SGC-7901; [16]) was 60.5 µM and the IC50 (HT-29; [15]) was 18.7 µM.
With `COc1ccc(C(=O)/C=C/c2cccc(OC)c2OC)cc1OC` the IC50 (SGC-7901; [16]) was 70.7 µM and the IC50 (HT-29; [15]) was 35.9 µM.
`Nc1ccc(C(=O)/C=C/c2ccc(Cl)cc2Cl)cc1` was tested, and the IC50 (SGC-7901; [16]) was 87.7 µM and the IC50 (HT-29; [15]) was 40 µM.
For `O=C(/C=C/c1ccc(Cl)cc1Cl)c1ccccc1O`, the IC50 (HT-29; [15]) was 42.4 µM.
For `CN(C)c1ccc(/C=C/C(=O)c2cccc(N)c2)cc1`, the IC50 (HT-29; ht-29) was “Not Active”.
With `CN(C)c1ccc(/C=C/C(=O)c2cc(F)cc(F)c2)cc1` the IC50 (SGC-7901; sgc-7901) was “Not Active” and the IC50 (HT-29; ht-29) was “Not Active”.
`Nc1ccc(C(=O)/C=C/c2ccccc2Cl)cc1` showed an IC50 (SGC-7901; [16]) of 11.2 µM and an IC50 (HT-29; [15]) of 26.2 µM.
In the case of `COc1ccc(/C=C/C(=O)c2ccc(N)cc2)c(Cl)c1`, the IC50 (SGC-7901; [16]) is reported as 20.2 µM, the MIC [1] is reported as > 1000 µg/mL and the MIC (Staphylococcus aureus [2]) is reported as 537 µg/mL (≈ 1870 µM). The MIC (Staphylococcus aureus [3]) was > 1000 µg/mL, the MIC (Staphylococcus aureus [4]) was 537 µg/mL (≈ 1870 µM) and the MIC [5] was > 1000 µg/mL. The MIC (Enterococcus faecium) was > 1000 µg/mL, the MIC (Enterococcus faecalis) was 537 µg/mL (≈ 1870 µM) and the IC50 (HT-29; [15]) was 55.7 µM.
In the case of `COc1ccc(/C=C/C(=O)c2cccc(N)c2)c(Cl)c1`, the IC50 (SGC-7901; [16]) is reported as 53.8 µM and the IC50 (HT-29; [15]) is reported as 42.8 µM.
`COc1ccc(C(=O)/C=C/c2ccc(OC)cc2Cl)cc1` was tested, and the IC50 (SGC-7901; [16]) was 19.2 µM and the IC50 (HT-29; [15]) was 49.1 µM.
`COc1ccc(/C=C/C(=O)c2ccccc2O)c(Cl)c1` was tested, and the IC50 (SGC-7901; [16]) was 62.1 µM and the IC50 (HT-29; [15]) was 59.5 µM.
For `COc1ccc(/C=C/C(=O)c2cc(F)cc(F)c2)cc1`, the IC50 (SGC-7901; sgc-7901) was “Not Active” and the IC50 (HT-29; [15]) was 101 µM.
For `Nc1ccc(C(=O)/C=C/c2ccccc2F)cc1`, the IC50 (SGC-7901; [16]) was 7.44 µM and the IC50 (HT-29; [15]) was 47.8 µM.
For `COc1ccc(C(=O)/C=C/c2ccc(N(C)C)cc2)cc1OC`, the IC50 (SGC-7901; sgc-7901) was “Not Active” and the IC50 (HT-29; [15]) was 49.8 µM.
With `COc1ccc(C(=O)/C=C/c2ccc(O)cc2)cc1` the MIC (Escherichia coli [6]) was 548 µg/mL (≈ 2160 µM), the MIC (Pseudomonas aeruginosa [7]) was > 1000 µg/mL and the IC50 (SGC-7901; [16]) was 14.7 µM. For the same compound, the MIC [1] was 81 µg/mL (≈ 319 µM), the MIC (Staphylococcus aureus [2]) was 81 µg/mL (≈ 319 µM) and the MIC (Staphylococcus aureus [3]) was 81 µg/mL (≈ 319 µM). For the same compound, the MIC (Staphylococcus aureus [4]) was 40 µg/mL (≈ 157 µM), the MIC [5] was 20 µg/mL (≈ 78.7 µM) and the MIC (Escherichia coli [8]) was 548 µg/mL (≈ 2160 µM). The MIC (Klebsiella pneumoniae [9]) was > 1000 µg/mL, the MIC (Enterococcus faecium) was > 1000 µg/mL and the MIC (Klebsiella pneumoniae [10]) was > 1000 µg/mL. It also gave an MIC (Enterococcus faecalis) of 81 µg/mL (≈ 319 µM), an MIC (Acinetobacter baumannii [11]) of 548 µg/mL (≈ 2160 µM) and an MIC (Acinetobacter baumannii [12]) of 548 µg/mL (≈ 2160 µM). For the same compound, the MIC (Pseudomonas aeruginosa [13]) was > 1000 µg/mL and the IC50 (HT-29; [15]) was 18.6 µM.
In the case of `COc1ccc(/C=C/C(=O)c2ccc(OC)c(OC)c2)cc1`, the IC50 (SGC-7901; [16]) is reported as 102 µM and the IC50 (HT-29; [15]) is reported as 54.6 µM.
`COc1ccc(/C=C/C(=O)c2ccc(N)cc2)c(OC)c1` was tested, and the IC50 (SGC-7901; sgc-7901) was “Not Active” and the IC50 (HT-29; ht-29) was “Not Active”.
In the case of `COc1ccc(/C=C/C(=O)c2ccc(OC)c(OC)c2)c(OC)c1`, the IC50 (SGC-7901; sgc-7901) is reported as “Not Active” and the IC50 (HT-29; [15]) is reported as 65.5 µM.
Compound `COc1ccc(C(=O)/C=C/c2ccccc2F)cc1` has an IC50 (SGC-7901; [16]) of 21.2 µM and an IC50 (HT-29; [15]) of 18.9 µM.
`O=C(/C=C/c1ccc(O)cc1)c1ccccc1` [4-HYDROXYCHALCONE] showed an MIC (Escherichia coli [6]) of 158 µg/mL (≈ 705 µM), an MIC (Pseudomonas aeruginosa [7]) of 158 µg/mL (≈ 705 µM) and an IC50 (SGC-7901; [16]) of 13.7 µM. It also gave an MIC [1] of 158 µg/mL (≈ 705 µM), an MIC (Staphylococcus aureus [2]) of 158 µg/mL (≈ 705 µM) and an MIC (Staphylococcus aureus [3]) of 158 µg/mL (≈ 705 µM). The MIC (Staphylococcus aureus [4]) was 158 µg/mL (≈ 705 µM), the MIC [5] was 158 µg/mL (≈ 705 µM) and the MIC (Escherichia coli [8]) was 158 µg/mL (≈ 705 µM). For the same compound, the MIC (Klebsiella pneumoniae [9]) was > 1000 µg/mL, the MIC (Enterococcus faecium) was 315 µg/mL (≈ 1400 µM) and the MIC (Klebsiella pneumoniae [10]) was > 1000 µg/mL. For the same compound, the MIC (Staphylococcus aureus [14]) was 125 µg/mL (≈ 557 µM), the MIC (Enterococcus faecalis) was 158 µg/mL (≈ 705 µM) and the MIC (Acinetobacter baumannii [11]) was 158 µg/mL (≈ 705 µM). The MIC (Acinetobacter baumannii [12]) was 158 µg/mL (≈ 705 µM), the MIC (Pseudomonas aeruginosa [13]) was > 1000 µg/mL and the IC50 (HT-29; [15]) was 24.6 µM.
With `O=c1[nH]cc(F)c(=O)[nH]1` [FLUOROURACIL] the IC50 (SGC-7901; Homo sapiens, SGC-7901, 72 h) was 29.2 µM and the IC50 (HT-29; [15]) was 9.72 µM.
With `C[C@H]1COc2c(N3CCN(C)CC3)c(F)cc3c(=O)c(C(=O)O)cn1c23.C[C@H]1COc2c(N3CCN(C)CC3)c(F)cc3c(=O)c(C(=O)O)cn1c23.O` [LEVOFLOXACIN] the MIC (Escherichia coli [6]) was 25 µg/mL, the MIC (Pseudomonas aeruginosa [7]) was > 1000 µg/mL and the MIC [1] was > 1000 µg/mL. For the same compound, the MIC (Staphylococcus aureus [2]) was 12.5 µg/mL, the MIC (Staphylococcus aureus [3]) was 100 µg/mL and the MIC (Staphylococcus aureus [4]) was 12.5 µg/mL. For the same compound, the MIC [5] was 125 µg/mL, the MIC (Escherichia coli [8]) was > 1000 µg/mL and the MIC (Klebsiella pneumoniae [9]) was > 1000 µg/mL. The MIC (Enterococcus faecium) was > 1000 µg/mL, the MIC (Klebsiella pneumoniae [10]) was 125 µg/mL and the MIC (Enterococcus faecalis) was > 1000 µg/mL. For the same compound, the MIC (Acinetobacter baumannii [11]) was 12.5 µg/mL, the MIC (Acinetobacter baumannii [12]) was > 1000 µg/mL and the MIC (Pseudomonas aeruginosa [13]) was 325 µg/mL.
